From ChEMBL document CHEMBL5352441, “Modulation of FLT3-ITD and CDK9 in acute myeloid leukaemia cells by novel proteolysis targeting chimera (PROTAC)” (2022)
Activity calls are given as the source filed them. The rule behind the calls is not given here. Peptide text beside a SMILES is read from it. * marks the point of attachment. Cbz = O=C(OCc1ccccc1)*

How the values were obtained:
RS4-11 = test: Antiproliferative activity against human RS4-11 cells assessed as cell growth inhibition incubated for 72 hrs by resazurin dye based fluorescence analysis; type: functional
Kasumi 1 = test: Antiproliferative activity against human Kasumi 1 cells assessed as cell growth inhibition incubated for 72 hrs by resazurin dye based fluorescence analysis; type: functional
CCRF-CEM = test: Antiproliferative activity against human CEM cells assessed as cell growth inhibition incubated for 72 hrs by resazurin dye based fluorescence analysis; type: functional
[1] = target: CDK9/cyclin T1 (Homo sapiens) (UniProt O60563+P50750); test: Inhibition of human CDK9/Cyclin T1 assessed as residual activity at 100 nM relative to control; type: protein-complex assay
MOLM-13 = test: Antiproliferative activity against human MOLM-13 cells harboring FLT3-ITD mutation assessed as cell growth inhibition incubated for 72 hrs by resazurin dye based fluorescence analysis; type: functional
MV4-11 [2] = test: Antiproliferative activity against CRBN-deficient human MV4-11 cells assessed as cell growth inhibition incubated for 72 hrs by resazurin dye based fluorescence analysis; type: functional
THP-1 = test: Antiproliferative activity against human THP-1 cells assessed as cell growth inhibition incubated for 72 hrs by resazurin dye based fluorescence analysis; type: functional
MV4-11 [3] = test: Antiproliferative activity against human MV4-11 cells harboring FLT3-ITD mutation assessed as cell growth inhibition incubated for 72 hrs by resazurin dye based fluorescence analysis; type: functional
HL-60 = test: Antiproliferative activity against human HL-60 cells assessed as cell growth inhibition incubated for 72 hrs by resazurin dye based fluorescence analysis; type: functional
[4] = target: Receptor-type tyrosine-protein kinase FLT3 (Homo sapiens) (UniProt P36888); test: Inhibition of human FLT3 assessed as residual activity at 100 nM relative to control
Chain of Receptor-type tyrosine-protein kinase FLT3 (Homo sapiens) (P36888 whole entry): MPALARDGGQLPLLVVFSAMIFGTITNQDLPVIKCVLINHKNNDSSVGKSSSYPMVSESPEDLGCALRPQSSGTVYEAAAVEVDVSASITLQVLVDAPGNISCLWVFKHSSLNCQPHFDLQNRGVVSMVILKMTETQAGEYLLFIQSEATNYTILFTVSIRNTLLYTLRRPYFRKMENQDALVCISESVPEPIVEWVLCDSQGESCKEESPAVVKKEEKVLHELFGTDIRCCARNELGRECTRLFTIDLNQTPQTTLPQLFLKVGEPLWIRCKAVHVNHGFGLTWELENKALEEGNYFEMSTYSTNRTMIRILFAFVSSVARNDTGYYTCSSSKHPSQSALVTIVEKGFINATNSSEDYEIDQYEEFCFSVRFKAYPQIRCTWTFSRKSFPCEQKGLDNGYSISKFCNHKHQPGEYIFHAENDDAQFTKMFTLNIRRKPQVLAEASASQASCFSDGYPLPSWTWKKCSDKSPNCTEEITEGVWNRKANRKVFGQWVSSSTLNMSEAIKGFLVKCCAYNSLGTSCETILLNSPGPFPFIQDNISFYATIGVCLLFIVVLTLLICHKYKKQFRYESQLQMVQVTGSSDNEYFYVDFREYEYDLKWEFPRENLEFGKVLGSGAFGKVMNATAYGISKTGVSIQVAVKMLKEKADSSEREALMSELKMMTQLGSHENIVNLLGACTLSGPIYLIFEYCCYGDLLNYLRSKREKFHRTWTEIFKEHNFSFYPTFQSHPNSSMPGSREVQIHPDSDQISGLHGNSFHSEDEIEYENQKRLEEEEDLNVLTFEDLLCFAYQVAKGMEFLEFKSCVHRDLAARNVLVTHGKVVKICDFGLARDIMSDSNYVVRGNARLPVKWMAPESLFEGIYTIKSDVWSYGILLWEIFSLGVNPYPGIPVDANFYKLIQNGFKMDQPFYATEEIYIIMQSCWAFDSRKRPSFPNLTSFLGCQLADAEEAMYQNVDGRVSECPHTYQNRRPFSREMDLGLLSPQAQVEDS

U-937 = test: Antiproliferative activity against human U-937 cells assessed as cell growth inhibition incubated for 72 hrs by resazurin dye based fluorescence analysis; type: functional
[5] = target: Cyclin-dependent kinase 9 (Homo sapiens) (UniProt P50750); test: Induction of CDK9 protein degradation in human MV4-11 cells at 0.2 uM incubated for 90 mins by immunoblot analysis; type: cell-based
Chain of Cyclin-dependent kinase 9 (Homo sapiens) (P50750 whole entry): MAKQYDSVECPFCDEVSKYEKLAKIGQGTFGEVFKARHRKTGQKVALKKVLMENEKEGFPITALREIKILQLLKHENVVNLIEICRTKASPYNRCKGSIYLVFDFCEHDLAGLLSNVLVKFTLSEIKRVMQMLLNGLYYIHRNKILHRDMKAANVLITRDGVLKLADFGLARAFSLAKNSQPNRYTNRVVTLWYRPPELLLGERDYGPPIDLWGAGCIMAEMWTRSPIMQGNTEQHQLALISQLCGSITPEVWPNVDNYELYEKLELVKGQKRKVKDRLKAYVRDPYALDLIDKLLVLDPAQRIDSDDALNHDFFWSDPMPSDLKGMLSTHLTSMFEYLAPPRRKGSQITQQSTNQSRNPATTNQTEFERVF

[6] = target: Receptor-type tyrosine-protein kinase FLT3 (Homo sapiens) (UniProt P36888); test: Induction of FLT3 protein degradation in human MV4-11 cells at 0.2 uM incubated for 90 mins by immunoblot analysis; type: cell-based
MV4-11 [7] = test: Downregulation of MCL-1 gene expression in human MV4-11 cells at 0.1 uM incubated for 4 hrs by qRT-PCR analysis; type: functional, cell-based
MV4-11 [8] = test: Downregulation of Bcl-2 gene expression in human MV4-11 cells at 0.1 uM incubated for 4 hrs by qRT-PCR analysis; type: functional, cell-based
MV4-11 [9] = test: Downregulation of HOXA9 gene expression in human MV4-11 cells at 0.1 uM incubated for 4 hrs by qRT-PCR analysis; type: functional, cell-based
MV4-11 [10] = test: Downregulation of Myb gene expression in human MV4-11 cells at 0.1 uM incubated for 4 hrs by qRT-PCR analysis; type: functional, cell-based
MV4-11 [11] = test: Upregulation of FLT3 total protein level in human MV4-11 cells harboring FLT3-ITD mutation at 0.1 uM incubated for 16 hrs by immunoblot analysis; type: functional, cell-based
MV4-11 [12] = test: Downregulation of Myc gene expression in human MV4-11 cells at 0.1 uM incubated for 4 hrs by qRT-PCR analysis; type: functional, cell-based
MV4-11 [13] = test: Upregulation of FLT3 total protein level in CRBN-deficient human MV4-11 cells at 0.1 uM incubated for 16 hrs by immunoblot analysis; type: functional, cell-based
MV4-11 [14] = test: Downregulation of MEISI gene expression in human MV4-11 cells at 0.1 uM incubated for 4 hrs by qRT-PCR analysis; type: functional, cell-based
[15] = target: Receptor-type tyrosine-protein kinase FLT3 (Homo sapiens) (UniProt P36888); test: Inhibition of FLT3 signalling pathway in human MV4-11 cells assessed as reduction in STAT5 phosphorylation at Y694 residue at 10 uM incubated for 90 mins by immunoblot analysis; type: cell-based
MV4-11 [16] = test: Effect on CDK9 protein level in human MV4-11 cells at 10 uM incubated for 90 mins by immunoblot analysis; type: functional, cell-based
MV4-11 [17] = test: Effect on FLT3 protein level in human MV4-11 cells at 10 uM incubated for 90 mins by immunoblot analysis; type: functional, cell-based
[18] = target: Receptor-type tyrosine-protein kinase FLT3 (Homo sapiens) (UniProt P36888); test: Inhibition of FLT3 signalling pathway in human MV4-11 cells assessed as reduction in ERK1/2 phosphorylation at T202/Y204 residues at 10 uM incubated for 90 mins by immunoblot analysis; type: cell-based

CCN1CCN(c2ccc(Nc3nc(NC4CCC(N)CC4)nc4c3ncn4C3CCCC3)cc2)CC1 (stereo not drawn)
GI50 (RS4-11): 295 nM
GI50 (Kasumi 1): 534 nM
GI50 (CCRF-CEM): 1280 nM
Activity [1]: 3%
GI50 (MOLM-13): 8 nM
GI50 (MV4-11 [2]): 8 nM
GI50 (THP-1): 681 nM
GI50 (MV4-11 [3]): 9 nM
GI50 (HL-60): 1520 nM
Activity [4]: 2%
GI50 (U-937): 695 nM

CC(C)C[C@@H](C=O)NC(=O)[C@H](CC(C)C)NC(=O)[C@H](CC(C)C)NC(=O)OCc1ccccc1 (Cbz-Leu-Leu-Leu-aldehyde)
Activity [5]: inactive
Activity [6]: inactive

CNC(=O)c1cc(Oc2ccc(NC(=O)Nc3ccc(Cl)c(C(F)(F)F)c3)cc2)ccn1
Activity (MV4-11 [7]): inactive
Activity (MV4-11 [8]): inactive
Activity (MV4-11 [9]): inactive
Activity (MV4-11 [10]): inactive
Activity (MV4-11 [11]): Active
Activity (MV4-11 [12]): inactive
Activity (MV4-11 [13]): Active
Activity (MV4-11 [14]): inactive

O=C1CCC(N2C(=O)c3cccc(O)c3C2=O)C(=O)N1 (stereo not drawn)
inhibition [15]: inactive
Activity (MV4-11 [16]): inactive
Activity (MV4-11 [17]): inactive
inhibition [18]: inactive

CC(C)(C)c1cc(NC(=O)Nc2ccc(-c3cn4c(n3)sc3cc(OCCN5CCOCC5)ccc34)cc2)no1
Activity (MV4-11 [7]): inactive
Activity (MV4-11 [8]): inactive
Activity (MV4-11 [9]): inactive
Activity (MV4-11 [10]): inactive
Activity (MV4-11 [11]): Active
Activity (MV4-11 [12]): inactive
Activity (MV4-11 [13]): Active
Activity (MV4-11 [14]): inactive
